Laboratory results taken from PubChem BioAssay (NCI).
Several values for one entry are separate records, joined by “and”; a condition that tells them apart may be missing. Identical values can stand only once.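 Where inhibition never reached the appropriate level, the endpoint shown equals the highest concentration tested. Otherwise, values were interpolated linearly from a five-concentration, 48-hour dose response in 96-well plates. GI50 is the concentration that inhibits growth by half. TGI denotes the concentration required for complete inhibition of growth.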

How the values were obtained:
Assay in all cases: NCI-60 cell line screen, 48 h
SN12C renal = tested on: SN12C renal
CCRF-CEM leukemia = tested on: CCRF-CEM leukemia
SW-620 colon = tested on: SW-620 colon
UO-31 renal = tested on: UO-31 renal
OVCAR-3 ovarian = tested on: OVCAR-3 ovarian
SR leukemia = tested on: SR leukemia
EKVX NSCLC = tested on: EKVX NSCLC
SF-268 CNS = tested on: SF-268 CNS
TK-10 renal = tested on: TK-10 renal

Structure (SMILES) | GI50 (SN12C renal) | TGI (SN12C renal) | GI50 (CCRF-CEM leukemia) | TGI (CCRF-CEM leukemia) | GI50 (SW-620 colon) | TGI (SW-620 colon) | GI50 (UO-31 renal) | TGI (UO-31 renal) | GI50 (OVCAR-3 ovarian) | TGI (OVCAR-3 ovarian) | GI50 (SR leukemia) | TGI (SR leukemia) | GI50 (EKVX NSCLC) | TGI (EKVX NSCLC) | GI50 (SF-268 CNS) | TGI (SF-268 CNS) | GI50 (TK-10 renal) | TGI (TK-10 renal)
CCCCCn1ncc(-c2c(O)c(O)cc3c(O)c(-c4c(C)cc5c(-c6cnn(CCCCC)n6)c(O)c(O)cc5c4O)c(C)cc23)n1 | 0.124 µM | 5.75 µM | 0.0927 µM | 6.3 µM | 0.117 µM | 6.26 µM | 0.18 µM | 1.84 µM | 0.0919 µM | 4.62 µM | 0.201 µM | 7.27 µM | 0.177 µM | 4.61 µM | 0.147 µM | 4.27 µM | 0.126 µM | 5.05 µM
C=C(C)[C@@H]1CC[C@]2(c3ncc(C)o3)CC[C@]3(C)[C@H](CC[C@@H]4[C@@](C)(CCC#N)[C@H](C(=C)C)CC[C@]43C)[C@@H]12 | 3.16 µM | 12.1 µM | 2.93 µM | 10.2 µM | 5.81 µM | 20.8 µM | 2.4 µM | 14.8 µM | 4.16 µM | 15.5 µM | 2.75 µM | > 100 µM | 3.13 µM | 12.6 µM | 4.68 µM | 18.9 µM | 14 µM | 28.2 µM
COc1ccc2c3c([nH]c2c1[N+](=O)[O-])C(C)N(C(=O)/C=C/c1ccccc1)CC3 (configuration not stated) |  | > 100 µM |  | > 100 µM |  | > 100 µM |  | > 100 µM |  | > 100 µM |  | > 100 µM |  | > 100 µM |  | 4.75 µM |  | > 100 µM
CCCCn1c(=O)c(/C=C/C(=O)/C=C/c2ccc(O)c(OC)c2)cc2ccc(Cl)cc21 | 1.91 µM | 4.17 µM | 2.79 µM | 22 µM | 2.05 µM | 4.37 µM | 1.59 µM | 2.93 µM | 1.7 µM | 3.24 µM | 2.04 µM | 17.6 µM | 2.18 µM | 4.58 µM | 1.96 µM | 5.43 µM | 2.51 µM | 5.47 µM
COc1cc2c3c(n(CCCn4cccn4)c(=O)c2cc1OC)-c1cc2c(cc1C3=O)OCO2 | 0.463 µM | 3.08 µM | 0.341 µM | 2.34 µM | 1.39 µM | > 100 µM | 0.962 µM | 18.1 µM | 33.7 µM | > 100 µM | 0.0465 µM | 1.57 µM | 8.79 µM | > 53.1 µM | 0.586 µM | > 100 µM | 35.1 µM | > 100 µM
COc1cc2c(cc1OCCN1C(=O)c3cccc4cccc(c34)C1=O)N=C[C@@H]1CCCN1C2=O |  | 14.7 µM | 1.44 µM | 23.1 µM and 19.5 µM | 17.2 µM | 15.8 µM and > 100 µM | 16.8 µM | 15.8 µM and 30.5 µM | 14.9 µM | 13.1 µM and 28.2 µM |  | > 100 µM | 13.8 µM | 18.3 µM and 26.7 µM |  | 15.3 µM |  | 14.8 µM
COc1ccc(S(=O)(=O)N2CCCCC2)cc1NC(=O)c1[nH]c(C)c2c1CCCCC2=O | 3.16 µM | > 100 µM | 3.14 µM | > 100 µM | 8.04 µM | > 100 µM | 0.379 µM | 40.7 µM | 2.64 µM | > 100 µM | 0.762 µM | > 100 µM | 3.78 µM | > 100 µM | 7.91 µM | > 100 µM | 0.658 µM | 38.1 µM
COc1cc(C)c(N(C)C(=O)CN(C)C)cc1Nc1nc(Nc2cccc(F)c2C(N)=O)c2cc[nH]c2n1 | > 25 µM | > 25 µM | > 19.3 µM | > 25 µM | > 22.4 µM | > 25 µM | 9.26 µM | > 25 µM | > 25 µM | > 25 µM | 7.85 µM | > 23.3 µM | > 25 µM | > 25 µM | > 25 µM | > 25 µM | > 22 µM | > 25 µM
Cc1cc(C)c(S(=O)(=O)Oc2ccccc2[N+](=O)[O-])c(C)c1 | 14.7 µM | > 100 µM | 2.15 µM | > 100 µM | 0.583 µM | > 100 µM | 3.27 µM | > 100 µM | 1 µM | 3.63 µM | 0.443 µM | > 100 µM | 3.26 µM | > 100 µM | 4.57 µM | > 100 µM | 4.86 µM | > 100 µM
S=C1SC2(CCCCCC2)NC2=C1CCCCC2 |  | > 100 µM |  | > 100 µM |  | > 100 µM |  | 60.1 µM |  | > 100 µM |  | 80.4 µM |  | 44.2 µM |  | > 100 µM |  | > 100 µM
COC(=O)/C=C\C1C(C(=O)OC)C2(C(=O)OC)CCC1(C(=O)OC)N2 (configuration not stated) |  | 29.9 µM |  | 21.8 µM |  | 9.38 µM |  | 30.8 µM |  | 28.7 µM |  | 16.7 µM |  | > 60.2 µM |  | 44.5 µM |  | 15 µM
